# Source: patent US6977142B2, “High-throughput turbidometric assay for screening inhibitors of protein disulfide isomerase activity” (AGY Therapeutics, Inc., priority 2003, dated 2005)
# “And” between values parts separate entries of the source, which are not always exact repeats. Equal values may be shown once. Where a SMILES comes first, the peptide text is derived from it.
# What was measured:
# [1] = target: T1, Protein disulfide isomerase (PDI) from bovine liver (Bos taurus, UniProt P05307); test: High-throughput turbidometric assay of PDI-catalyzed insulin reduction (OD650, H2O2 stop); assay type: biochemical
# T1 construct: Protein disulfide isomerase (PDI) from bovine liver (Catalog number P3818); purchased Sigma P3818; host or cells: bovine liver (tissue-derived enzyme)
# T1 sequence (P05307 21-510): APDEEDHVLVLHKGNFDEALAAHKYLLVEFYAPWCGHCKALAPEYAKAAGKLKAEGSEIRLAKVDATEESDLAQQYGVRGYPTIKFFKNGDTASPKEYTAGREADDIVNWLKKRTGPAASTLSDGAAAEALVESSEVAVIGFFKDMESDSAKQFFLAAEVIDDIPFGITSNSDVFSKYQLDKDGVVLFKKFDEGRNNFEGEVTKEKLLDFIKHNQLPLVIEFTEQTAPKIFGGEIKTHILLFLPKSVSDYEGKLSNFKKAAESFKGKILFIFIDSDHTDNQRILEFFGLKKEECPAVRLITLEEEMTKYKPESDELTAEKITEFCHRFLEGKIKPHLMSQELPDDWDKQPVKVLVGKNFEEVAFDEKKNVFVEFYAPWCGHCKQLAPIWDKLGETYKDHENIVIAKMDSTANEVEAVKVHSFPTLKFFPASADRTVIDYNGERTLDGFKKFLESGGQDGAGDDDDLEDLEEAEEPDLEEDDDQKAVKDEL
# Experimental: Protein disulfide isomerase (PDI) from bovine liver (Catalog number P3818), insulin from bovine pancreas (Catalog number 14011), dithiothreitol (Catalog number D9779), H2O2 (Catalog number H6520) and bacitracin (Catalog number B0125) were purchased from Sigma. A stock solution of 1.6 mM insulin was prepared by dissolving insulin in 0.1 N HCl. Clear polystyrene 384-well assay plates were obtained from Greiner (Catalog number 781101). All reagents used in this study were of analytical grade.
# The assay utilized the method according to Bonfils (1998) Eur J Biochem 254:420–427, but was miniaturized in 384-well plates. The assay buffer consisted of 100 mM potassium phosphate and 0.2 mM EDTA, pH 7.0. In a standard room temperature assay, insulin from a 1.6 mM stock solution and PDI from a 5 mg/mL stock were added to final concentrations of 0.16 mM and 33 ug/mL in assay buffer, respectively. Aliquots of the reaction mixture were then added at 30 μL per well to 384-well assay plates. To initiate the reaction, 5 μL of 7 mM dithiothreitol (final concentration 1 mM) was added and quickly mixed. The enzyme reaction was monitored at 650 nm on a SpectraMax Plus plate reader (Molecular Devices, Sunnyvale, Calif.).
# For high-throughput screening, a Biomek 2000 liquid handling system (Beckman-Coulter, Palo Alto, Calif.) was used to add 5 μL of 1 M positive control H2O2 to each well in column 24 of the assay plates. Then a Biomek FX384 pipettor (Beckman-Coulter, Palo Alto, Calif.) was programmed to automate the subsequent additions. The pipettor aspirated 29 μL of the enzyme/substrate mixture, applied a 0.5-μL air gap, dipped into DMSO to wash the pipette tip exterior, pipetted 1 μL of 300 μM compound, and then dispensed the entire volume into the assay plate. After the dispense step, the compound was mixed well with the enzyme and substrate. Following a 10 min pre-incubation, 5 μL of 7 mM dithiothreitol was dispensed into the reaction wells. This was followed immediately by a mixing step, in which 20 μL of the mixture was aspirated and dispensed twice in the well. The reaction was allowed to proceed for 30 min and stopped by adding 5 μL of 1 M H2O2 (final concentration 125 mM) to each well. The optical density of each well was measured at 650 nm on the SpectraMax Plus plate reader.
# For data analysis, the results are presented as mean±standard deviation. Dose-response curves were fitted by least square regression using Prism (version 3.03). The Z′ factor was calculated according to Zhang et al. (1999) J Biomol Screen 4:67–73.
# PDI = PDI (Homo sapiens, UniProt P07237); details: insulin reduction assay, reported in the literature; cited from earlier work
# Chain of PDI (P07237 18-508, species assumed): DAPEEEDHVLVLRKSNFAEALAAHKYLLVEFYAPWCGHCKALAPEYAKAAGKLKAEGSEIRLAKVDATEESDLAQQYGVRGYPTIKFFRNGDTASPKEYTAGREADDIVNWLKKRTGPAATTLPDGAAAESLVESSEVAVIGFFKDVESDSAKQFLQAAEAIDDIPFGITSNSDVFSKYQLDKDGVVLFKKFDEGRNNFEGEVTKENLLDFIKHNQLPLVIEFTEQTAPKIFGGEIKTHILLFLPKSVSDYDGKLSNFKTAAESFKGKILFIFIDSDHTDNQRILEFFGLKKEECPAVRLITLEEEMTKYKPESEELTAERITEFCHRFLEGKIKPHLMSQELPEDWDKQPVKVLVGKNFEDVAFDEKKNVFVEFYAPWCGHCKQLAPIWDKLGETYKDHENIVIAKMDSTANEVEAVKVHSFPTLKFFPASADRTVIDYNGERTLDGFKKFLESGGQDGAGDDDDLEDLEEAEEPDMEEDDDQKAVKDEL
smiles,measurement,setting,value
"CC[C@H](C)[C@H](N)C1=N[C@H](C(=O)N[C@@H](CC(C)C)C(=O)N[C@H](CCC(=O)O)C(=O)N[C@H](C(=O)N[C@H]2CCCCNC(=O)[C@H](CC(N)=O)NC(=O)[C@@H](CC(=O)O)NC(=O)[C@H](Cc3cnc[nH]3)NC(=O)[C@@H](Cc3ccccc3)NC(=O)[C@H]([C@@H](C)CC)NC(=O)[C@@H](CCCN)NC2=O)[C@@H](C)CC)CS1 [bacitracin] (HELM PEPTIDE1{[CC[C@H](C)[C@H](N)C1=N[C@H](C(=O)[*:2])CS1].L.[dE].I.K.[NCCC[C@@H](N[*:1])C(=O)[*:2]].I.[dF].H.[dD].N}$PEPTIDE1,PEPTIDE1,5:R3-11:R2$$$V2.0)",behaviour as stop reagent,[1]; 2 mM bacitracin added 30 min after initiation of the reaction,slow inhibitor
same,inhibition of the enzyme reaction,[1]; bacitracin incubated with the enzyme prior to the addition of dithiothreitol,dramatically inhibited the enzyme reaction
same,Hill slope,"[1]; dose-response curve, non-linear regression",1.2±0.2 and 1.2
same,IC50,"[1]; inhibitor incubated with enzyme and insulin 10 minutes prior to initiation with dithiothreitol, dose-response",152 ± 25 µM
same,IC50,PDI,~200 µM
